In article PMC12141046 (2025):
One block for each compound: values may come before it.

Experiments:
[1] = test system: G4 MYC (DNA, G4) TGAGGGTGGGTAGGGTGGGTAA; test: fluorescent intercalator displacement; conditions: 100 mM K+, 10 mM lithium cacodylate pH 7.3, thiazole orange displaced
[2] = test system: dsDNA (DNA, duplex) CAATCGGATCGAATTCGATCCGATTG; test: fluorescent intercalator displacement; conditions: 100 mM K+, 10 mM lithium cacodylate pH 7.3, thiazole orange displaced
[3] = test system: G4 MYC (DNA, G4) TGAGGGTGGGTAGGGTGGGTAA; test: CD titration; conditions: 100 mM Li+, 10 mM Tris-HCl pH 7.4, 20 °C, 10 µM DNA
[4] = test system: G4 KIT1 (DNA, G4) AGGGAGGGCGCTGGGAGGAGGG; test: CD titration; conditions: 100 mM Li+; 10 mM Tris-HCl pH 7.4, 20 °C; 10 µM DNA; 405 nm illuminated; G4 induction

Compound: NCCOc1cc(NC(=O)c2ccc3c(c2)/N=N/c2cc(-c4ccc5cccnc5c4)ccc2CC3)nc2ccccc12
apparent Kd [1]: 1000 ± 30 nM

Compound: NCCOc1cc(NC(=O)c2ccc3c(c2)/N=N/c2cc(-c4ccc5ncccc5c4)ccc2CC3)nc2ccccc12
apparent Kd [1]: 940 ± 30 nM

Compound: NCCOc1cc(NC(=O)c2ccc3c(c2)/N=N/c2cc(-c4cnc5ccccc5c4)ccc2CC3)nc2ccccc12
apparent Kd [1]: 970 ± 60 nM

Continued, values first:

apparent Kd [1]: 760 ± 130 nM
Compound: NCCOc1cc(NC(=O)c2ccc3c(c2)/N=N/c2cc(-c4ccc(N5CCCCC5)cc4)ccc2CC3)nc2ccccc12

DC50 ([1]; normalized to trans isomer): 1580 ± 50 nM
apparent Kd ([1]; derived from normalized DC50): 630 ± 20 nM
binding ([2]; highest 5 µM, 405 nm illuminated): no
Compound: NCCOc1cc(NC(=O)c2ccc3c(c2)/N=N/c2cc(C4=CCN(CCNC(=O)CCOCCOCCOCCOCCNC(=O)CCCC[C@@H]5SC[C@@H]6NC(=O)N[C@@H]65)CC4)ccc2CC3)nc2ccccc12

binding ([3]; 405 nm illuminated, parallel G4 induction): yes
binding [4]: yes
DC50 ([1]; normalized to trans isomer): 1150 ± 60 nM
apparent Kd ([1]; derived from DC50 normalized to trans isomer): 460 ± 20 nM
binding ([2]; 405 nm illuminated): no
Compound: NCCOc1cc(NC(=O)c2ccc3c(c2)/N=N/c2cc(C4=CCNCC4)ccc2CC3)nc2ccccc12

binding ([3]; dark, slight shift at 30 µM): weak
DC50 ([1]; dark): 12460 ± 650 nM
apparent Kd ([1]; dark, b14 prints error as 0.65): 4970 ± 260 nM
binding ([2]; dark): no
Compound: NCCOc1cc(NC(=O)c2ccc3c(c2)/N=N\c2cc(C4=CCNCC4)ccc2CC3)nc2ccccc12
